Results taken from ChEMBL document CHEMBL3885861, “Open TG-GATES”.

Species: Rattus norvegicus
Experiment: Open TG-GATES - Regimen: Daily Repeat
Format: toxicity, organism-based, Sprague-Dawley
Design: regimen Daily Repeat, gender Male, age 6 weeks
Details: in vivo, po, route gavage; for APTT / Bas / Eos / Fbg / Hb / Ht / Lym / MCH / MCHC / MCV / Mono / Neu / PT / Plat / RBC / Ret / WBC: tissue Blood; for LIVER: tissue Liver; for A/G / ALP / ALT / AST / BUN / CRE / Ca / Cl / DBIL / GLC / IP / K / LDH / Na / PL / RALB / TBIL / TC / TG / TP / gamma-GTP: tissue Plasma
[1] = 20 mg/kg, 72 h, dose level Middle, time 3 day
[2] = 20 mg/kg, […], dose level Middle, time 7 day
[3] = 20 mg/kg, […], dose level Middle, time 14 day
[4] = 20 mg/kg, […], dose level Middle, time 28 day
[5] = 60 mg/kg, 72 h, dose level High, time 3 day
[6] = 60 mg/kg, […], dose level High, time 7 day
[7] = 60 mg/kg, […], dose level High, time 14 day
[8] = 60 mg/kg, […], dose level High, time 28 day

Question: Which results are given for `O=[N+]([O-])c1ccc(O)c([N+](=O)[O-])c1` [2,4-DINITROPHENOL]?
Answer: TERMINAL_BW [1]: 243.1 g; APTT [1]: 15.4 s; Bas [1]: 0%; Eos [1]: 1.2%; Fbg [1]: 283.4 mg/dL; Hb [1]: 13.6 g/dL; Ht [1]: 40.4%; Lym [1]: 77%; MCH [1]: 22.4 pg; MCHC [1]: 33.7%; MCV [1]: 66.4 fL; Mono [1]: 5%; Neu [1]: 17%; PT [1]: 11.4 s; Plat [1]: 131.6 x10_4/uL; RBC [1]: 609.2 x10_4/ul; Ret [1]: 7.3%; WBC [1]: 124.2 x10_2/uL; LIVER [1]: 12.1 g; A/G [1]: 2.4; ALP [1]: 1368.6 IU/L; ALT [1]: 36.6 IU/L; AST [1]: 61.6 IU/L; BUN [1]: 15.2 mg/dL; CRE [1]: 0.4 mg/dL; Ca [1]: 11.4 mg/dL; Cl [1]: 104.2 meq/L; DBIL [1]: 0.01 mg/dL; GLC [1]: 182.6 mg/dL; IP [1]: 7.3 mg/dL; K [1]: 4.8 meq/L; LDH [1]: 128.4 IU/L; Na [1]: 138.2 meq/L; PL [1]: 165.4 mg/dL; RALB [1]: 3.9 g/dL; TBIL [1]: 0.022 mg/dL; TC [1]: 93 mg/dL; TG [1]: 134.6 mg/dL; TP [1]: 5.6 g/dL; gamma-GTP [1]: 0.2 IU/L; TERMINAL_BW [2]: 277.1 g; TERMINAL_BW [3]: 351 g; TERMINAL_BW [4]: 428.8 g; APTT [2]: 16.2 s; Bas [2]: 0%; Eos [2]: 0.8%; Fbg [2]: 259.6 mg/dL; Hb [2]: 13.7 g/dL; Ht [2]: 40.8%; Lym [2]: 71.4%; MCH [2]: 21.3 pg; MCHC [2]: 33.6%; MCV [2]: 63.3 fL; Mono [2]: 9%; Neu [2]: 19%; PT [2]: 11.8 s; Plat [2]: 128 x10_4/uL; RBC [2]: 644.2 x10_4/ul; Ret [2]: 5.5%; WBC [2]: 102 x10_2/uL; APTT [3]: 16.3 s; Bas [3]: 0%; Eos [3]: 0.6%; Fbg [3]: 267 mg/dL; Hb [3]: 13.9 g/dL; Ht [3]: 41.3%; Lym [3]: 77.6%; MCH [3]: 21 pg; MCHC [3]: 33.8%; MCV [3]: 62.2 fL; Mono [3]: 6%; Neu [3]: 15.8%; PT [3]: 11.8 s; Plat [3]: 128 x10_4/uL; RBC [3]: 663.8 x10_4/ul; Ret [3]: 4.4%; WBC [3]: 125.8 x10_2/uL; APTT [4]: 17.1 s; Bas [4]: 0%; Eos [4]: 1%; Fbg [4]: 281.8 mg/dL; Hb [4]: 14.9 g/dL; Ht [4]: 44%; Lym [4]: 82.4%; MCH [4]: 20 pg; MCHC [4]: 33.8%; MCV [4]: 59.1 fL; Mono [4]: 5%; Neu [4]: 11.6%; PT [4]: 12 s; Plat [4]: 122 x10_4/uL; RBC [4]: 744.2 x10_4/ul; Ret [4]: 2.6%; WBC [4]: 118.2 x10_2/uL; LIVER [2]: 13.6 g; LIVER [3]: 17.5 g; LIVER [4]: 19.1 g; A/G [2]: 2.3; ALP [2]: 1592.8 IU/L; ALT [2]: 33.4 IU/L; AST [2]: 63 IU/L; BUN [2]: 18.4 mg/dL; CRE [2]: 0.4 mg/dL; Ca [2]: 11.4 mg/dL; Cl [2]: 105.4 meq/L; DBIL [2]: 0.012 mg/dL; GLC [2]: 182 mg/dL; IP [2]: 7.2 mg/dL; K [2]: 4.8 meq/L; LDH [2]: 111.6 IU/L; Na [2]: 139.4 meq/L; PL [2]: 149.6 mg/dL; RALB [2]: 3.9 g/dL; TBIL [2]: 0.02 mg/dL; TC [2]: 77.4 mg/dL; TG [2]: 148.2 mg/dL; TP [2]: 5.6 g/dL; gamma-GTP [2]: 0.4 IU/L; A/G [3]: 2.1; ALP [3]: 983.2 IU/L; ALT [3]: 33.4 IU/L; AST [3]: 64.2 IU/L; BUN [3]: 19 mg/dL; CRE [3]: 0.3 mg/dL; Ca [3]: 11.8 mg/dL; Cl [3]: 104.4 meq/L; DBIL [3]: 0.014 mg/dL; GLC [3]: 180.4 mg/dL; IP [3]: 6.9 mg/dL; K [3]: 4.5 meq/L; LDH [3]: 99.8 IU/L; Na [3]: 137 meq/L; PL [3]: 151.2 mg/dL; RALB [3]: 4 g/dL; TBIL [3]: 0.022 mg/dL; TC [3]: 74.2 mg/dL; TG [3]: 190.4 mg/dL; TP [3]: 6 g/dL; gamma-GTP [3]: 0 IU/L; A/G [4]: 1.9; ALP [4]: 871.8 IU/L; ALT [4]: 31.8 IU/L; AST [4]: 63.4 IU/L; BUN [4]: 18.2 mg/dL; CRE [4]: 0.5 mg/dL; Ca [4]: 11.2 mg/dL; Cl [4]: 104.6 meq/L; DBIL [4]: 0.012 mg/dL; GLC [4]: 180.8 mg/dL; IP [4]: 6.6 mg/dL; K [4]: 4.3 meq/L; LDH [4]: 117.2 IU/L; Na [4]: 141 meq/L; PL [4]: 133.4 mg/dL; RALB [4]: 4.1 g/dL; TBIL [4]: 0.016 mg/dL; TC [4]: 67.6 mg/dL; TG [4]: 155.6 mg/dL; TP [4]: 6.2 g/dL; gamma-GTP [4]: 0.4 IU/L; TERMINAL_BW [5]: 245.9 g; APTT [5]: 15.9 s; Bas [5]: 0%; Eos [5]: 1%; Fbg [5]: 275.4 mg/dL; Hb [5]: 13.3 g/dL; Ht [5]: 39.2%; Lym [5]: 74%; MCH [5]: 22 pg; MCHC [5]: 33.9%; MCV [5]: 64.9 fL; Mono [5]: 7%; Neu [5]: 18.4%; PT [5]: 11.7 s; Plat [5]: 139 x10_4/uL; RBC [5]: 604.8 x10_4/ul; Ret [5]: 9.7%; WBC [5]: 124 x10_2/uL; LIVER [5]: 12.8 g; A/G [5]: 2.2; ALP [5]: 1454.2 IU/L; ALT [5]: 31.8 IU/L; AST [5]: 66.2 IU/L; BUN [5]: 17.8 mg/dL; CRE [5]: 0.4 mg/dL; Ca [5]: 11.4 mg/dL; Cl [5]: 104.6 meq/L; DBIL [5]: 0.014 mg/dL; GLC [5]: 169.2 mg/dL; IP [5]: 6.6 mg/dL; K [5]: 5 meq/L; LDH [5]: 98.2 IU/L; Na [5]: 137.8 meq/L; PL [5]: 155.2 mg/dL; RALB [5]: 3.8 g/dL; TBIL [5]: 0.02 mg/dL; TC [5]: 82 mg/dL; TG [5]: 125 mg/dL; TP [5]: 5.6 g/dL; gamma-GTP [5]: 0.2 IU/L; TERMINAL_BW [6]: 262.8 g; TERMINAL_BW [7]: 327.9 g; TERMINAL_BW [8]: 396.2 g; APTT [6]: 16.6 s; Bas [6]: 0%; Eos [6]: 1.4%; Fbg [6]: 263.8 mg/dL; Hb [6]: 14.2 g/dL; Ht [6]: 41.9%; Lym [6]: 78.4%; MCH [6]: 21.5 pg; MCHC [6]: 33.9%; MCV [6]: 63.4 fL; Mono [6]: 6.4%; Neu [6]: 14.6%; PT [6]: 11.9 s; Plat [6]: 128.6 x10_4/uL; RBC [6]: 662.2 x10_4/ul; Ret [6]: 6.1%; WBC [6]: 126.8 x10_2/uL; APTT [7]: 16.3 s; Bas [7]: 0%; Eos [7]: 0.8%; Fbg [7]: 263.8 mg/dL; Hb [7]: 14.3 g/dL; Ht [7]: 42.2%; Lym [7]: 74.8%; MCH [7]: 21.6 pg; MCHC [7]: 33.9%; MCV [7]: 63.5 fL; Mono [7]: 10.4%; Neu [7]: 14.2%; PT [7]: 12.2 s; Plat [7]: 124 x10_4/uL; RBC [7]: 665.2 x10_4/ul; Ret [7]: 4.2%; WBC [7]: 114.6 x10_2/uL; APTT [8]: 16.4 s; Bas [8]: 0%; Eos [8]: 1%; Fbg [8]: 294.4 mg/dL; Hb [8]: 15.6 g/dL; Ht [8]: 46.4%; Lym [8]: 73.4%; MCH [8]: 20.5 pg; MCHC [8]: 33.6%; MCV [8]: 60.9 fL; Mono [8]: 6.6%; Neu [8]: 18.8%; PT [8]: 12 s; Plat [8]: 105.6 x10_4/uL; RBC [8]: 763.2 x10_4/ul; Ret [8]: 2.9%; WBC [8]: 117.4 x10_2/uL; LIVER [6]: 13.7 g; LIVER [7]: 17.8 g; LIVER [8]: 21.6 g; A/G [6]: 2.3; ALP [6]: 1317.4 IU/L; ALT [6]: 39.4 IU/L; AST [6]: 72 IU/L; BUN [6]: 17 mg/dL; CRE [6]: 0.3 mg/dL; Ca [6]: 11.5 mg/dL; Cl [6]: 104.2 meq/L; DBIL [6]: 0.014 mg/dL; GLC [6]: 167.8 mg/dL; IP [6]: 7.2 mg/dL; K [6]: 4.8 meq/L; LDH [6]: 116.8 IU/L; Na [6]: 140.2 meq/L; PL [6]: 150.4 mg/dL; RALB [6]: 4 g/dL; TBIL [6]: 0.016 mg/dL; TC [6]: 77.6 mg/dL; TG [6]: 115 mg/dL; TP [6]: 5.7 g/dL; gamma-GTP [6]: 0.8 IU/L; A/G [7]: 2.2; ALP [7]: 1140.6 IU/L; ALT [7]: 38 IU/L; AST [7]: 79.2 IU/L; BUN [7]: 18.6 mg/dL; CRE [7]: 0.4 mg/dL; Ca [7]: 11.8 mg/dL; Cl [7]: 104.6 meq/L; DBIL [7]: 0.014 mg/dL; GLC [7]: 167.8 mg/dL; IP [7]: 6 mg/dL; K [7]: 4.1 meq/L; LDH [7]: 134.2 IU/L; Na [7]: 138 meq/L; PL [7]: 151.2 mg/dL; RALB [7]: 4.1 g/dL; TBIL [7]: 0.02 mg/dL; TC [7]: 67.4 mg/dL; TG [7]: 208.6 mg/dL; TP [7]: 6 g/dL; gamma-GTP [7]: 0 IU/L; A/G [8]: 1.9; ALP [8]: 925 IU/L; ALT [8]: 45.6 IU/L; AST [8]: 93.8 IU/L; BUN [8]: 20.8 mg/dL; CRE [8]: 0.5 mg/dL; Ca [8]: 11.4 mg/dL; Cl [8]: 105 meq/L; DBIL [8]: 0.018 mg/dL; GLC [8]: 167.6 mg/dL; IP [8]: 5 mg/dL; K [8]: 4.2 meq/L; LDH [8]: 160 IU/L; Na [8]: 140.2 meq/L; PL [8]: 144.4 mg/dL; RALB [8]: 4.1 g/dL; TBIL [8]: 0.026 mg/dL; TC [8]: 69 mg/dL; TG [8]: 177.8 mg/dL; TP [8]: 6.3 g/dL; gamma-GTP [8]: 0.6 IU/L
